In series [1] the target is T1, High affinity nerve growth factor receptor (Homo sapiens, UniProt P04629). In words: Inhibition of TrkA (unknown origin).
The target of series [2] is T1, High affinity nerve growth factor receptor. In words: Inhibition of TrkA (unknown origin) by cell-based assay.
Series [3] has as its target T2, BDNF/NT-3 growth factors receptor (Homo sapiens, UniProt Q16620). In words: Inhibition of TrkB (unknown origin).
For series [4], the target named is T2, BDNF/NT-3 growth factors receptor. In words: Inhibition of TrkB (unknown origin) by cell-based assay.
Series [5] is described as follows: Apparent permeability from apical side to basolateral side of MDCK cells. Type of series: ADME, cell-based, Canis lupus familiaris. The note with it: dog.
The nature of series [6]: Apparent permeability from basolateral side to apical side of MDCK cells. In kind it is ADME, cell-based, Canis lupus familiaris. The note with it: dog.

The term IC50 denotes the concentration that inhibits the measured activity by half. Low readings indicate inhibition by little substance, high ones a need for much substance. As a reminder, the Papp A→B is the apparent permeability from the apical to the basolateral side of a cell layer. Broadly, the Papp B→A is the apparent permeability from the basolateral to the apical side of a cell layer.

T1 sequence (P04629 whole entry): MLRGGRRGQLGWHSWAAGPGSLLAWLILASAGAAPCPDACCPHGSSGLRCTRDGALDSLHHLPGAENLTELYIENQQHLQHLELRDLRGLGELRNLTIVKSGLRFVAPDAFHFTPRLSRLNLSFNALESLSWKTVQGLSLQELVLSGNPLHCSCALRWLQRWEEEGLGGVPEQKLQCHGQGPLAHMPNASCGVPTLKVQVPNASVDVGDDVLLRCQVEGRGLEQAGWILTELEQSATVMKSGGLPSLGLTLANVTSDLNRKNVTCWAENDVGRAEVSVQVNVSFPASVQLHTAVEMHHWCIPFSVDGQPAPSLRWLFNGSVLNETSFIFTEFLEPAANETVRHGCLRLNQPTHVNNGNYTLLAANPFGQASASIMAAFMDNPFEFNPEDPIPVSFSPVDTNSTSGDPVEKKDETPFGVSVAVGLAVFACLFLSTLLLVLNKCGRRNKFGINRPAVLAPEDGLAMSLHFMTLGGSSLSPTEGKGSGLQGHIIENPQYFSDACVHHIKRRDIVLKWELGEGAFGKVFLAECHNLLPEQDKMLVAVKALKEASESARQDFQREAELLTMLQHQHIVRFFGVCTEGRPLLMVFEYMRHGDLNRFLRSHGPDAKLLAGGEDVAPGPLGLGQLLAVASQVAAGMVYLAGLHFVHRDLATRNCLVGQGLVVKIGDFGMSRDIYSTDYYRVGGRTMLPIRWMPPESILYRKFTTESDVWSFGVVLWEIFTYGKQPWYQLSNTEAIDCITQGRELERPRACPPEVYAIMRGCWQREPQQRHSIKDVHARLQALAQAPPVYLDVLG
T2 sequence (Q16620 whole entry): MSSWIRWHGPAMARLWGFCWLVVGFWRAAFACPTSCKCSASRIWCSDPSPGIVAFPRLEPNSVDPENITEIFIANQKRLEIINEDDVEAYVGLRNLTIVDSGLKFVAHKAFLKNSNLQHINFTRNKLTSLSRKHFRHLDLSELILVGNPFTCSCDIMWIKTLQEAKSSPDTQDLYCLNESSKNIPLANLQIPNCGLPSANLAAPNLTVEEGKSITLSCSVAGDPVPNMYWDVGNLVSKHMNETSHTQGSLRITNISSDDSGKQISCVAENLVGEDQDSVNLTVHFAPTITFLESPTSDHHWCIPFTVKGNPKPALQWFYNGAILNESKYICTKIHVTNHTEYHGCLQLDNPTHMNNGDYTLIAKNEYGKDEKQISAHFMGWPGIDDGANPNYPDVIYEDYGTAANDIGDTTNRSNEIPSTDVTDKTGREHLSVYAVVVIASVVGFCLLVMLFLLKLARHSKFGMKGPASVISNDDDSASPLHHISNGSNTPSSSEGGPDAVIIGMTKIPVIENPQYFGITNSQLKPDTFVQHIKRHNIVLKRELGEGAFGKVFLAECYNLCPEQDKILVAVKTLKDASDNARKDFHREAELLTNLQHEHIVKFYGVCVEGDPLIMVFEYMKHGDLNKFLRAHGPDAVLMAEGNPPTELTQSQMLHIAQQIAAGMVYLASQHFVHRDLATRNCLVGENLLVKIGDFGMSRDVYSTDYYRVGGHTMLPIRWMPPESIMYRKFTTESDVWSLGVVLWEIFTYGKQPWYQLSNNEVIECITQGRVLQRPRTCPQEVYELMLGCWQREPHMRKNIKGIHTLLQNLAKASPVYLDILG

`CC(C)[C@H](CO)Nc1nc(Nc2ccc(C(=O)O)c(Cl)c2)c2ncn(C(C)C)c2n1` [PURVALANOL B]: the IC50 was 51 nM in series [1], 1710 nM in series [2], 11 nM in series [3] and 1300 nM in series [4]. The Papp A→B in series [5] came to 1.1 ×10⁻⁶ cm/s. In series [6], the basolateral-to-apical permeability (Papp B→A) is < 5 ×10⁻⁶ cm/s.

The record behind these values is ChEMBL document CHEMBL3217685, “Quantitative affinity-based chemical proteomics of TrkA inhibitors” (Medchemcomm, 2012).
